10 compounds from ChEMBL document CHEMBL1201862, “PubChem BioAssay data set” (2004) can be followed below.

Test systems include IGROV-1; NCI-H522; SF-295; LOX IMVI; U-251; UO-31; K562; EKVX; HCT-116; MDA-N; PC-3; RPMI-8226; SK-MEL-28; SF-268; RXF 393; NCI-H226; SK-MEL-5; HT-29; 786-0; MOLT-4.
What all share (assay): inhibition of tumour cell growth, NCI panel, 48 h

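Cells were grown in 96-well plates and exposed to each compound for 48 hours at five concentrations; endpoints were interpolated linearly between bracketing concentrations, or set to the highest concentration if not reached. The concentration for 50% growth inhibition is given as GI50.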 Calls of active or inactive are those of the source. No stated cut-off is given here; in the data, active = GI50 up to about 1.1 µM and inactive = higher.

`Nc1nc(N)c(-c2cccc(C(F)(F)F)c2)c(Cc2cccc(C(F)(F)F)c2)n1`: the GI50 was 1.91 µM (inactive) with IGROV-1; 4.06 µM (inactive) in the test on NCI-H522; 1.52 µM (inactive) in the test with SF-295; 1.35 µM (inactive) in the test with LOX IMVI; 15.7 µM (inactive) with U-251; 6.32 µM (inactive) with UO-31. The GI50 in the test on K562 was 0.449 µM (active); in the test with EKVX it was 5.92 µM (inactive); in the test on HCT-116, 0.64 µM (active); with MDA-N, 0.689 µM (active); with PC-3, 11.7 µM (inactive); with RPMI-8226, 6.73 µM (inactive). In addition, the GI50 in the test with SK-MEL-28 is 11.4 µM (inactive); with SF-268, 5.55 µM (inactive); in the test on RXF 393, 3.34 µM (inactive); in the test on NCI-H226, 10.4 µM (inactive); with SK-MEL-5, 2.98 µM (inactive); in the test on HT-29 it was 1.18 µM (inactive). Moreover, the figures for the GI50 with 786-0 and in the test with MOLT-4 were 0.841 µM (active) and 2.9 µM (inactive), respectively.

As to `CC(=O)Oc1cc2c(n(C)c1=O)-c1ccccc1C2`, the GI50 was 36.2 µM (inactive) with IGROV-1; 15.9 µM (inactive) with NCI-H522; > 100 µM (inactive) in the test on SF-295; 29.4 µM (inactive) in the test with LOX IMVI; 75.9 µM (inactive) in the test on U-251; 41 µM (inactive) in the test with UO-31. Further, the GI50 with K562 is > 100 µM (inactive); in the test on HCT-116 it was 34.7 µM (inactive); in the test with MDA-N, > 100 µM (inactive); in the test on PC-3, 40.8 µM (inactive); in the test with RPMI-8226, > 100 µM (inactive); in the test on SK-MEL-28, > 100 µM (inactive). Moreover, the GI50 is 44.1 µM (inactive) in the test on SF-268; > 100 µM (inactive) in the test with RXF 393; > 100 µM (inactive) with NCI-H226; 85.3 µM (inactive) in the test with SK-MEL-5; 78.2 µM (inactive) with HT-29; > 100 µM (inactive) in the test with 786-0. Moreover, the GI50 in the test on MOLT-4 is 66.8 µM (inactive).

With `CC(=O)NC1C(OCc2ccccc2)OC(CO)C(O)C1OC(C)C(=O)N[C@@H](C)C(=O)N[C@H](CCC(=O)NCCNCCNc1c2ccccc2nc2cccc([N+](=O)[O-])c12)C(N)=O` (some centres undefined), the GI50 was 0.0385 µM (active) with IGROV-1; < 0.01 µM (active) in the test on NCI-H522; 0.207 µM (active) in the test with SF-295; 0.136 µM (active) with LOX IMVI; 0.0944 µM (active) in the test with U-251; 0.24 µM (active) in the test with UO-31. Moreover, the GI50 in the test on K562 was 0.0311 µM (active); with EKVX, 0.199 µM (active); with HCT-116, 0.0214 µM (active); with MDA-N, 0.0708 µM (active); in the test with PC-3, 0.0321 µM (active); in the test with RPMI-8226, 0.0698 µM (active). Also, the GI50 in the test with SK-MEL-28 is 0.245 µM (active); in the test with SF-268, 0.164 µM (active); in the test on RXF 393 it was 0.0169 µM (active); with NCI-H226, 0.149 µM (active); in the test on SK-MEL-5, 0.0159 µM (active); with HT-29, 0.0369 µM (active). The GI50 in the test on 786-0 is 0.0601 µM (active); in the test with MOLT-4 it was 0.0935 µM (active).

Regarding `Cc1cn(C2C=CC(COP(=O)(OCc3ccc([N+](=O)[O-])o3)N(C)CCCCCl)O2)c(=O)[nH]c1=O` (centres undefined), the GI50 in the test on IGROV-1 is 3.03 µM (inactive); in the test with NCI-H522 it was 1.85 µM (inactive); in the test on SF-295, 15.6 µM (inactive); with LOX IMVI, 3.58 µM (inactive); in the test with U-251, 5.58 µM (inactive); with UO-31, 16.7 µM (inactive). The GI50 is 2.08 µM (inactive) in the test with K562; 8.65 µM (inactive) with HCT-116; 2.63 µM (inactive) with MDA-N; 12.8 µM (inactive) with PC-3; 2.69 µM (inactive) in the test with RPMI-8226; 10.6 µM (inactive) in the test on SK-MEL-28. Moreover, the GI50 in the test on SF-268 is 7.57 µM (inactive); in the test with RXF 393, 2.38 µM (inactive); in the test with NCI-H226 it was 10.6 µM (inactive); with SK-MEL-5, 1.22 µM (inactive); with HT-29, 11.7 µM (inactive); in the test on 786-0, 10.9 µM (inactive). In addition, the GI50 with MOLT-4 was 10.1 µM (inactive).

On to `CC(C)(Cc1ccccc1)N1C(=O)N1C(C)(C)Cc1ccccc1`, for which the GI50 with IGROV-1 was 29.9 µM (inactive); in the test with NCI-H522, 13.8 µM (inactive); with LOX IMVI, 17.7 µM (inactive); with U-251, 38 µM (inactive); in the test on UO-31, 14.1 µM (inactive); with K562, 27.4 µM (inactive). Also, the GI50 is 92.7 µM (inactive) with EKVX; 40.6 µM (inactive) in the test on HCT-116; 38.8 µM (inactive) in the test with MDA-N; 47.5 µM (inactive) with PC-3; 16.5 µM (inactive) in the test on RPMI-8226; > 100 µM (inactive) in the test on SK-MEL-28. Also, the GI50 in the test with SF-268 was 53.2 µM (inactive); in the test with RXF 393, 14.8 µM (inactive); in the test with NCI-H226, 16.4 µM (inactive); in the test with SK-MEL-5, 14.1 µM (inactive); in the test on HT-29 it was 15.5 µM (inactive); in the test on 786-0, 21.6 µM (inactive). Moreover, in the test on MOLT-4, the GI50 is 18.7 µM (inactive).

Turning to `COC(=O)C1=C(OC(=O)/C(=C/c2ccccc2)c2ccc(OC)cc2)C(C(=O)OC)[C@@]2(O)[C@@H](C(=O)OC)[C@H](C)C[C@@H]1[C@@H]2C(=O)OC` (some centres undefined), the GI50 is 55.7 µM (inactive) in the test on IGROV-1; 35.3 µM (inactive) in the test with NCI-H522; > 100 µM (inactive) in the test on SF-295; > 100 µM (inactive) with LOX IMVI; 63.2 µM (inactive) with U-251; > 100 µM (inactive) in the test on UO-31. Besides, the GI50 in the test on K562, in the test on EKVX, with HCT-116, in the test on MDA-N, with PC-3 and in the test with RPMI-8226 was > 100 µM (inactive) throughout. In addition, the GI50 is > 100 µM (inactive) in the test with SK-MEL-28; > 100 µM (inactive) in the test on SF-268; 17.8 µM (inactive) in the test with RXF 393; > 100 µM (inactive) with NCI-H226; > 100 µM (inactive) in the test with SK-MEL-5; > 100 µM (inactive) in the test on HT-29. Moreover, the GI50 with 786-0 was 26.1 µM (inactive); in the test on MOLT-4, > 100 µM (inactive).

As for `C/C(CC(O)(C(F)(F)F)C(F)(F)F)=N\O`, the GI50 in the test on IGROV-1, in the test with NCI-H522, in the test on SF-295, in the test with LOX IMVI, in the test with U-251 and in the test with K562 was > 10 µM (inactive) throughout. Besides, the GI50 with EKVX, in the test with HCT-116, in the test with MDA-N, in the test on PC-3, in the test on RPMI-8226 and with SK-MEL-28 was > 10 µM (inactive) each time. The GI50 with SF-268, with RXF 393, in the test with NCI-H226, in the test on SK-MEL-5, with HT-29 and in the test with 786-0 was > 10 µM (inactive) in each case. Besides, the GI50 with MOLT-4 was > 10 µM (inactive).

Turning to `CCOC(=O)CCC(NC(=O)c1ccc(Nc2nc3ccccc3nc2C(=O)OCC)s1)C(=O)OCC` (centres undefined), the GI50 in the test on IGROV-1, with NCI-H522, in the test on LOX IMVI, with U-251, in the test on UO-31 and with K562 was > 100 µM (inactive) throughout. In addition, the GI50 with EKVX, in the test on HCT-116, in the test with MDA-N, with PC-3, in the test on RPMI-8226 and in the test on SK-MEL-28 was > 100 µM (inactive) each time. Besides, the GI50 is 98.4 µM (inactive) in the test with SF-268; 66.1 µM (inactive) in the test with RXF 393; 21.1 µM (inactive) in the test with NCI-H226; > 100 µM (inactive) in the test on SK-MEL-5; > 100 µM (inactive) in the test with HT-29; 21.7 µM (inactive) with 786-0. Besides, the GI50 in the test on MOLT-4 was > 100 µM (inactive).

With `O=c1c2cc([N+](=O)[O-])ccc2n2n1CCCCC2`, the GI50 in the test with IGROV-1, with NCI-H522, in the test on SF-295, in the test with LOX IMVI, in the test on U-251 and with UO-31 was > 100 µM (inactive) in each case. Further, the GI50 with K562, with EKVX, in the test on HCT-116, with MDA-N, in the test with PC-3 and with RPMI-8226 was > 100 µM (inactive) each time. The GI50 in the test with SK-MEL-28, in the test on SF-268, in the test with RXF 393, in the test on NCI-H226, in the test on SK-MEL-5 and in the test on HT-29 was > 100 µM (inactive) throughout. Moreover, the GI50 in the test with 786-0 and in the test with MOLT-4 was > 100 µM (inactive) throughout.

On to `COc1cc(-c2oc3c(OC)c(O)c(OC)c(O)c3c(=O)c2OC)cc(O)c1OC`, for which the GI50 with IGROV-1 was 12.1 µM (inactive); in the test with NCI-H522, 24.3 µM (inactive); in the test with SF-295, 15.8 µM (inactive); in the test with LOX IMVI, 28.4 µM (inactive); in the test on U-251, 43.4 µM (inactive); with UO-31 it was 23.5 µM (inactive). For the same compound, the GI50 was 26.5 µM (inactive) in the test with K562; 39.2 µM (inactive) in the test on EKVX; 36.1 µM (inactive) in the test with HCT-116; 17.7 µM (inactive) with MDA-N; 33.3 µM (inactive) in the test with PC-3; 23.8 µM (inactive) in the test on RPMI-8226. Moreover, the GI50 is 47.5 µM (inactive) with SK-MEL-28; 27.1 µM (inactive) in the test on RXF 393; > 100 µM (inactive) in the test with NCI-H226; 21.4 µM (inactive) in the test on SK-MEL-5; 30.8 µM (inactive) in the test with HT-29; 44.4 µM (inactive) with 786-0. Besides, in the test with MOLT-4, the GI50 is 42.9 µM (inactive).
